One assay concerns AML2 cell line. Nature of the assay: Cell killing assay (cytotoxicity) of IQB-CBI dimers, AML2. The following applies: 72 h; AML2 cells; 3-day incubation. Type of assay: cell-based. The protocol: (§1) Cytotoxicity of D801, D803, D05, D807, D809, D811, D813, D815 and D817 were tested against AML2 and HL60 cell lines. Cell killing assay was performed after 3-day incubation with various IQB-CBI dimers.

The subject of the next assay is HL60 cell line. Nature of the assay: Cell killing assay (cytotoxicity) of IQB-CBI dimers, HL60. Type of assay: cell-based. The following applies: Homo sapiens, HL-60, 72 h; HL60 cells; 3-day incubation. As for the experimental part: as §1
Assay [1] deals with T1, human interleukin 1 receptor accessory protein (IL1RAP) (human, UniProt Q9NPH3 21-570).
T1 construct: The target is carried by human cell lines: EOL1 at high copy number, HL-60 and SK-MEL-5 at low copy number
T1 sequence: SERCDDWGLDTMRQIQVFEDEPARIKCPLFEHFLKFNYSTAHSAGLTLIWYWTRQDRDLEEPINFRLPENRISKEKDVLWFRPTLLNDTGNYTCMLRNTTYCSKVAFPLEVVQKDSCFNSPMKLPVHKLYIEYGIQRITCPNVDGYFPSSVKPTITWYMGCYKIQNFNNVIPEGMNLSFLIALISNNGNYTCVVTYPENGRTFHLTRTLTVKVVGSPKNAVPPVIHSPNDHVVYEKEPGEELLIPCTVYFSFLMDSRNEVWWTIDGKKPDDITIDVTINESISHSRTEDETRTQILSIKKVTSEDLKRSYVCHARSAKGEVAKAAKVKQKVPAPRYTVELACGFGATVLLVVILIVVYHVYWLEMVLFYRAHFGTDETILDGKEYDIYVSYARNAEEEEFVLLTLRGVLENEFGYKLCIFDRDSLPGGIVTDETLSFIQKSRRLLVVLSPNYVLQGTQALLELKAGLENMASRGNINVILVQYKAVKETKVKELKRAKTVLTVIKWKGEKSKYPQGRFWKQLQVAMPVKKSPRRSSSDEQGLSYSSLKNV
Nature of the assay: flow cytometry (MFI, anti-human APC secondary) on HL-60, EOL1 and SK-MEL-5 cells expressing IL1RAP. The source says:
FIGS. 15 and 16 show binding, as a function of mean fluorescent intensity, of humanized (hu3G7) or chimeric (Chi3G7) anti-IL1RAP antibody to various cell lines. HL-60 cells (human promyelocytic leukemia cells), EOL1 cells (human eosinophilic leukemia cells) and SK-MEL-5 cells (human melanoma cell line) express IL1RAP, and EOL1 cells do so with high expression. C0 antibody is a non-binding control IgG1. D212 is a composition having the formula: […]
The cells were resuspended in binding buffer (PBS, 2% FBS)) containing 5% NHS (normal human serum) to 2 ×10^6 cells/mL. To 50 µL of cells, 50 µL of primary antibody/ADC was added and incubated at 4° for 30 min. After incubation, cells were wasked with binding buffer 2 times and then resuspended and incubated with second antibody (anti-human APC, 1:400 in the binding buffer) at 4° for 30 min. Cells were washed with binding buffer and resuspended in 200 uL of binding buffer with propidium iodide. Cells were immediately applied to flow cytometry for analysis. Mean fluorescence intensity (MFI) of the stained sample was measured.
(In general: A flow cytometer gives signals particle by particle.)

Converted amounts (≈) assume the structure as drawn.

Usually IC50 stands for the midpoint of a concentration-inhibition curve. The low end stands for higher potency, the high end for lower potency. In the case of `COc1cc2c(cc1OCCCCCC(=O)N1CC(CCl)c3c1cc(O)c1ccccc31)N=C[C@@H]1Cc3ccccc3CN1C2=O` (stereo partly drawn) [D813, (6aS)-3-((6-(1-(chloromethyl)-5-hydroxy-1,2-dihydro-3H-benzo[e]indol-3-yl)-6-oxohexyl)oxy)-2-methoxy-7,12-dihydrobenzo[5,6][1,4]diazepino[1,2-b]isoquinolin-14(6aH)-one], the IC50 with AML2 cell line was found to be 0.00028 ng/mL (≈ 0.000439 nM); with HL60 cell line, 0.00072 ng/mL (≈ 0.00113 nM).

B1: chimeric, cys-substituted (S156C) anti-IL1RAP antibody 3G7 (Chi3G7; human constant domain, mouse variable domain), tested as antibody and as IQB-CBI … (antibody, V domains shown)
VH: QIQLVQSGPELKKPGETVKISCKASGYTFTNYGMHWVKQSPGEGLKWMGWINTYTGEPTYADDFKGRFGFSLETSASSAYLQINDLKNEDMATYFCARYYGNFDYWGQGTTLTVSS
VL: DIVLTQSPATLSVTPGDSVSLSCRASQSISNNLHWYQQKSHESPRLLIKYASQSISGIPSRFSGSGSGTDFTLSINSVETEDFGVYFCQQSHNWPHTFGGGTKLEIKR
modifications: IQB-CBI dimer linker-payload (D816, D818, D820, D822, D824, D826 or D828) on the substituted cysteine S156C of the heavy chain constant region (constant region sequence not given)
notes: also called Chi3G7-(IQB-CBI) ADC; Chi3G7-CLT-(IQB-CBI) ADC
As for B1, in assay [1], the binding result is reported as “binds”.

B2: humanized, cys-substituted (S156C) anti-IL1RAP antibody 3G7 (hu3G7), tested as antibody and as IQB-CBI antibody-drug conjugates (antibody, human IgG1, kappa, V domains shown)
VH: EVQLVQSGAEVKKPGASVKISCKASGYTFTNYGMHWVRQAPGQGLEWMGWINTYTGEPTYAQKFQGRFTFTLDTSTSTAYLEIRSLRSDDTAVYYCARYYGNFDYWGQGTLLTVSS
VL: EIVMTQSPATLSVSPGERATLSCRASQSISNNLHWYQQKPGQAPRLLIYYASQSISGIPARFSGSGSGTEFTLTISSLQSEDFAVYYCQQSHNWPHTFGQGTKLEIKR
modifications: IQB-CBI dimer linker-payload (D816, D818, D820, D822, D824, D826 or D828) attached by maleimide to the substituted cysteine (S156C); DAR 1.7-2.0
notes: also called 3G7-S156C-CYSMAB; hu3G7-IQB-CBI
For the molecule B2, the binding result in assay [1] is reported as “binds”.

The values are drawn from US10350218B2, “Isoquinolidinobenzodiazepine (IQB)-1(chloromethyl)-2,3-dihydro-1H-benzo[e]indole (CBI) dimers” (priority 2016, dated 2019).
